“And” between values parts separate entries of the source, which are not always exact repeats. Equal values may be shown once.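 Five concentrations, 48 hours, 96-well plates. The concentration for 50% growth inhibition is given as GI50. At the TGI there is no net growth.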
Tests used:
Test in all cases: NCI-60 cell line screen, 48 h
NCI-H522 lung = tested on: NCI-H522 lung
MOLT-4 leukemia = tested on: MOLT-4 leukemia
HOP-62 NSCLC = tested on: HOP-62 NSCLC
K-562 leukemia = tested on: K-562 leukemia
SNB-75 CNS = tested on: SNB-75 CNS
LOX IMVI melanoma = tested on: LOX IMVI melanoma
MCF7 breast = tested on: MCF7 breast
UACC-257 melanoma = tested on: UACC-257 melanoma
SK-MEL-28 melanoma = tested on: SK-MEL-28 melanoma
EKVX NSCLC = tested on: EKVX NSCLC

Row | SMILES | TGI (NCI-H522 lung) [µM] | TGI (MOLT-4 leukemia) [µM] | TGI (HOP-62 NSCLC) [µM] | TGI (K-562 leukemia) [µM] | TGI (SNB-75 CNS) [µM] | TGI (LOX IMVI melanoma) | TGI (MCF7 breast) [µM] | TGI (UACC-257 melanoma) [µM] | TGI (SK-MEL-28 melanoma) [µM] | TGI (EKVX NSCLC) [µM] | GI50 (NCI-H522 lung) [nM] | GI50 (MOLT-4 leukemia) [nM] | GI50 (HOP-62 NSCLC) [nM] | GI50 (K-562 leukemia) [nM] | GI50 (SNB-75 CNS) [µM] | GI50 (UACC-257 melanoma) [nM] | GI50 (SK-MEL-28 melanoma) [nM] | GI50 (EKVX NSCLC) [nM] | GI50 (LOX IMVI melanoma) [µM] | GI50 (MCF7 breast) [µM]
1 | COC(=O)c1cn(CC(O)CCl)nn1 (centres undefined) | > 100 | > 100 | > 100 | > 100 | > 100 | > 100 µM | > 100 | > 100 | > 100 | > 100 | – | – | – | – | – | – | – | – | – | –
2 | CCCCCCCCCCCCCC[n+]1ccc(C(N)=O)cc1 | 4.68 | > 100 | 3.45 | > 100 | 4.17 | – | – | 6.08 | 7.49 | 6.71 | 1610 | 2540 | 1510 | 2310 | 1.7 | 2240 | 2830 | 1980 | – | –
3 | CCOc1ccc(C(C)c2cc3c(cc2OC)OCO3)cc1 (centres undefined) | 0.166 | 15 | 23.1 | – | – | > 100 µM | – | 52.8 | – | – | – | – | – | – | – | – | – | – | – | –
4 | CN(O)C(=O)CCCC(=O)NCC(C)(C)CNC(=O)CCCC(=O)N(C)O | – | > 100 | > 100 | > 100 | > 100 | > 100 µM | > 100 | > 100 | – | > 100 | – | – | – | – | – | – | – | – | – | –
5 | Cc1cc(OCCOCCC(F)(F)P(=O)(O)O)ccc1CCc1cnc2c(N)nc3cc(CCC(=O)O)ccc3c2c1 | > 100 | > 100 | > 100 | > 100 | > 100 | > 100 µM | > 100 | > 100 | > 100 | > 100 | > 100000 | > 100000 | > 100000 | > 100000 | 14 | > 100000 | > 100000 | > 100000 | > 100 | > 100
6 | O=C(O)/C(=C\c1ccc(O)cc1)c1cccc2ccccc12 | > 100 | > 100 | > 100 | > 100 | > 100 | > 100 µM | – | > 100 | > 100 | > 100 | – | – | – | – | – | – | – | – | – | –
7 | O=P(Nc1ccccc1)(Oc1ccccc1)N(CCCl)CCCl (centres undefined) | 28.8 | > 100 | > 100 | > 100 | > 100 | – | – | > 100 | > 100 | > 100 | – | – | – | – | – | – | – | – | – | –
8 | COc1cc2cc(C(=O)N3CC(CCl)c4ccc(N(C)C)cc43)[nH]c2c(OC)c1OC (centres undefined) | 0.0349 | 0.443 | 0.265 | > 100 | – | 0.289 µM | 0.604 | – | 0.121 | 0.558 | – | – | – | – | – | – | – | – | – | –
9 | Cc1ccc(N=Nc2c(O)ccc3cc(S(=O)(=O)O)ccc23)cc1 | > 100 | > 100 | > 100 | > 100 | > 100 | > 100 µM and 38.2 µM | > 100 | > 100 | > 100 | > 100 | – | – | – | – | – | – | – | – | – | –
10 | Cc1[nH]c2ccccc2c1/C=N/NC(=O)c1cccc(I)c1 | 63.7 | 60.9 | 41 | 78.7 | 54.5 | 31.2 µM | 61.7 | 54.5 | 76.3 | 41.9 | – | – | – | – | – | – | – | – | – | –

— PubChem BioAssay (NCI)
